The values below come from ChEMBL document CHEMBL2016457, “Discovery of potent and orally bioavailable 17β-hydroxysteroid dehydrogenase type 3 inhibitors” (Bioorg Med Chem, 2012).

pIC50: −log10 of the molar value. The source made the active and inactive calls. No rule for the calls is given here.

Assay [1] has as its target T1, 17-beta-hydroxysteroid dehydrogenase type 1 (Homo sapiens) (UniProt P14061).
T1 sequence (whole entry): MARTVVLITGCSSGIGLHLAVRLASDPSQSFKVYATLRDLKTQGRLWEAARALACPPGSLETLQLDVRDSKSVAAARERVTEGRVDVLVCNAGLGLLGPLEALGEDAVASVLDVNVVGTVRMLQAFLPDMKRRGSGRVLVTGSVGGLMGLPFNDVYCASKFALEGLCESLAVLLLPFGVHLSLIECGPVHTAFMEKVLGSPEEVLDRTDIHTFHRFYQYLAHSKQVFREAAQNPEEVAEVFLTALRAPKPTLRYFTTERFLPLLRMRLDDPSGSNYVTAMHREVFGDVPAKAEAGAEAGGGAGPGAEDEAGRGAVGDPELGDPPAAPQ
The assay can be described thus: Inhibition of human recombinant 17-beta-HSD1 expressed in human HeLa cells using estrone as substrate preincubated for 30 mins prior substrate addition measured after 120 mins by spectrophotometry. In kind it is cell-based.

The target in assay [2] is T2, 17-beta-hydroxysteroid dehydrogenase type 2 (Homo sapiens) (UniProt P37059).
T2 sequence (whole entry): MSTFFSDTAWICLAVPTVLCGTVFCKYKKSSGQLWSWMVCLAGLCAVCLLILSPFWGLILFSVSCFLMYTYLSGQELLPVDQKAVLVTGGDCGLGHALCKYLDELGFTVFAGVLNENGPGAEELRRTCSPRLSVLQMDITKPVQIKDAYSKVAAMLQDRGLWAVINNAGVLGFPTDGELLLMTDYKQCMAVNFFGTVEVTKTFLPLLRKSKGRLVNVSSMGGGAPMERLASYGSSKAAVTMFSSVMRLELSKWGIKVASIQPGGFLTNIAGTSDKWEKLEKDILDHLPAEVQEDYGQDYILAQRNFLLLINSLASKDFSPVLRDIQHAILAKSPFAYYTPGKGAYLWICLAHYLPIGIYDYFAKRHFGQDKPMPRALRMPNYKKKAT
The experiment in a line: Inhibition of human recombinant 17-beta-HSD2 expressed in human HeLa cells using estradiol as substrate preincubated for 30 mins prior substrate addition measured after 120 mins by spectrophotometry. The class given is cell-based.

The target of assay [3] is T3, Androgen receptor (Homo sapiens) (UniProt P10275).
T3 sequence (whole entry): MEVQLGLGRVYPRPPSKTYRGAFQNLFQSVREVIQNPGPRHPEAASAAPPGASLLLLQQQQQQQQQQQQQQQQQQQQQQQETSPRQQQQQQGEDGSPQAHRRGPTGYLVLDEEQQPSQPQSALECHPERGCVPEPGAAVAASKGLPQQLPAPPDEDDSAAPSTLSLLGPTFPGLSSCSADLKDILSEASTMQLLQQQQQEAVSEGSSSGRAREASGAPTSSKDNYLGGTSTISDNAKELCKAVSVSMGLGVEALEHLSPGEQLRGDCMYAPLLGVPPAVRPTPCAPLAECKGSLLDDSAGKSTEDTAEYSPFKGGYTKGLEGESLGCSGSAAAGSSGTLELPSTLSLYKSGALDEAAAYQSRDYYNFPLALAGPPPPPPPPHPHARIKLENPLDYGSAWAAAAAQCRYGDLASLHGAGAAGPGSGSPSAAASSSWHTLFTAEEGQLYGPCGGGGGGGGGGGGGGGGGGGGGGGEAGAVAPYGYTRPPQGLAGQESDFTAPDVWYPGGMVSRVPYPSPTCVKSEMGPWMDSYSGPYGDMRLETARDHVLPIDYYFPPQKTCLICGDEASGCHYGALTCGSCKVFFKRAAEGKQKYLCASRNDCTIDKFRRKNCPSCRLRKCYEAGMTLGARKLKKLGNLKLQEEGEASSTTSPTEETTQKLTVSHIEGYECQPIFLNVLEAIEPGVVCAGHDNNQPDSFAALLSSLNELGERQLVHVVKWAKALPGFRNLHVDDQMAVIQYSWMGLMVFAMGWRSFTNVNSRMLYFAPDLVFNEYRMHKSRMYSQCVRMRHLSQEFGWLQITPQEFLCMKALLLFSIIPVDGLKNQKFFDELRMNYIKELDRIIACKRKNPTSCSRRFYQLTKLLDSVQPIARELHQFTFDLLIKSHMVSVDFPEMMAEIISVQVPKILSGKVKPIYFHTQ
The experiment in a line: Agonist activity at human androgen receptor expressed in human HeLa cells assessed as DHT-induced response after 40 hrs by luciferase/beta-galactosidase-based reporter gene assay. The class given is functional, cell-based.

Assay [4] has as its target T4, Estrogen receptor (Homo sapiens) (UniProt P03372).
T4 sequence (whole entry): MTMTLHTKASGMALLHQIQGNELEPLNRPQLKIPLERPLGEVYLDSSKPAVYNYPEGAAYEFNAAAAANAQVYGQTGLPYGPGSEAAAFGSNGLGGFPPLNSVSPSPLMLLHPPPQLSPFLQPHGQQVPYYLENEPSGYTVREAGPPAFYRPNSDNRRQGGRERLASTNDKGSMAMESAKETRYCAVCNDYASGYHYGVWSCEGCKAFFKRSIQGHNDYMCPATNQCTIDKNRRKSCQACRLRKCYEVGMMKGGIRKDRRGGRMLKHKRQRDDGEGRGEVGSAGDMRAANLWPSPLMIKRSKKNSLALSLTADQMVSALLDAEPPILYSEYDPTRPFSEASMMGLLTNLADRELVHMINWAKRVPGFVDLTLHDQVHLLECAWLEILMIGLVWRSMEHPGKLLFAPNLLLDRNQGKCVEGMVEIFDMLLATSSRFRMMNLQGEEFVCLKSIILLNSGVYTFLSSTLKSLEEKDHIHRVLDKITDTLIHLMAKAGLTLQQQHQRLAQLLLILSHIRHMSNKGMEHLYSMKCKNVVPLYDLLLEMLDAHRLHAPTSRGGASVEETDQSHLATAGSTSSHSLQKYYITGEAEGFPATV
The assay can be described thus: Agonist activity at human Estrogen receptor ERalpha expressed in human HeLa cells assessed as DHT-induced response after 40 hrs by luciferase/beta-galactosidase-based reporter gene assay. In kind it is functional, cell-based.

For assay [5], the target named is T5, Glucocorticoid receptor (Homo sapiens) (UniProt P04150).
T5 sequence (whole entry): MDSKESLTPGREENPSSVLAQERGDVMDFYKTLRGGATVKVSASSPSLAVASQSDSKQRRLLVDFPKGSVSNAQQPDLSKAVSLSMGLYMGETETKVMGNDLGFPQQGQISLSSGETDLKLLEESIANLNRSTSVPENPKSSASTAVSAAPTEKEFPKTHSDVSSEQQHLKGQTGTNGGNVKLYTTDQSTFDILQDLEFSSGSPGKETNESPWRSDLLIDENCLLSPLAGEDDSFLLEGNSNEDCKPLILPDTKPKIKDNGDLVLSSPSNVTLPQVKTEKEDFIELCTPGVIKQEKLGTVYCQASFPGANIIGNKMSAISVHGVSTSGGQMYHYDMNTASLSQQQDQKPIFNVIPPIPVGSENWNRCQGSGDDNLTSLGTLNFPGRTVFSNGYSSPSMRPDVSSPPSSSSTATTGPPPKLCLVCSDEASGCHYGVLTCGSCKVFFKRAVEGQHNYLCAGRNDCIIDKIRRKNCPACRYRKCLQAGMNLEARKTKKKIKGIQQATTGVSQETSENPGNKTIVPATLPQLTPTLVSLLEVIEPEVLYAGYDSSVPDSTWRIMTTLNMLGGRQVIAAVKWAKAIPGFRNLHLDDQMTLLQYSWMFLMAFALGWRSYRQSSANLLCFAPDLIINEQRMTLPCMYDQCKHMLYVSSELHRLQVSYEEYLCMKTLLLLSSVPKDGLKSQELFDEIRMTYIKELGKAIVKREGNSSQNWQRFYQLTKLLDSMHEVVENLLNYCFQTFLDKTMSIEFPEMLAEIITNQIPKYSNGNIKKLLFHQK
The assay can be described thus: Agonist activity at human Glucocorticoid receptor expressed in human HeLa cells assessed as DHT-induced response after 40 hrs by luciferase/beta-galactosidase-based reporter gene assay. In kind it is functional, cell-based.

Assay [6] addresses T3, Androgen receptor (Homo sapiens). The experiment in a line: Antagonist activity at human androgen receptor expressed in human HeLa cells assessed as inhibition of DHT-induced response after 40 hrs by luciferase/beta-galactosidase-based reporter gene assay. In kind it is functional, cell-based.
In assay [7] the target is T4, Estrogen receptor (Homo sapiens). The experiment in a line: Antagonist activity at human ERalpha receptor expressed in human HeLa cells assessed as inhibition of DHT-induced response after 40 hrs by luciferase/beta-galactosidase-based reporter gene assay. In kind it is functional, cell-based.
In assay [8] the target is T5, Glucocorticoid receptor (Homo sapiens). The assay can be described thus: Antagonist activity at human GR receptor expressed in human HeLa cells assessed as inhibition of DHT-induced response after 40 hrs by luciferase/beta-galactosidase-based reporter gene assay. The class given is functional, cell-based.
The target in assay [9] is T6, 17-beta-hydroxysteroid dehydrogenase type 3 (Homo sapiens, UniProt P37058).
T6 sequence (P37058 whole entry): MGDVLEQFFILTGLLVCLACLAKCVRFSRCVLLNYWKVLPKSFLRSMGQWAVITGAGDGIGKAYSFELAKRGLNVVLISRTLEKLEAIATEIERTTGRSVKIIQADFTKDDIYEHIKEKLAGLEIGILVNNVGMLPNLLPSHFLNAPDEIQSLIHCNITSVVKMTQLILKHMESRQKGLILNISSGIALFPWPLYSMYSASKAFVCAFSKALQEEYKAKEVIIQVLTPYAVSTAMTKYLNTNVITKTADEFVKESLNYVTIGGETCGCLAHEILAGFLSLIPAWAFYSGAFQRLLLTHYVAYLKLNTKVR
Description: Inhibition of human recombinant 17-beta-HSD3 expressed in human HeLa cells using androstenedione as substrate preincubated for 30 mins prior substrate addition measured after 120 mins by spectrophotometry

For the compound `COc1ccc(N2C(=O)C(Cc3ccc(O)c(Br)c3)SC2=S)cc1` (configuration not stated), the inhibition entry in assay [1] and in assay [2] was “inactive” each time. Also, the outcome in assay [3], in assay [4], in assay [5], in assay [6], in assay [7] and in [8] was inactive. In assay [9], this compound gave a pIC50 of 7.05.
In the case of `O=C1/C(=C/c2ccc(O)c(Br)c2)OC(=S)N1c1ccc2c(c1)OCO2`, the inhibition result in assay [1] and in [2] was “inactive” in each case. Moreover, the outcome in assay [3], in assay [4], in assay [5], in assay [6], in [7] and in [8] was inactive. In addition, the pIC50 in [9] was 7.92.
For `COc1cccc(N2C(=O)/C(=C/c3ccc(O)c(Br)c3)OC2=S)c1`, the inhibition result in assay [1] and in [2] was “inactive” each time. Also, the outcome in assay [3], in [4], in assay [5], in [6], in [7] and in assay [8] was inactive. Moreover, the pIC50 in assay [9] is 8.15.
Turning to `O=C1O/C(=C\c2ccc(O)c(Br)c2)C(=O)N1c1ccc(F)nc1`, the inhibition entry in assay [1] and in assay [2] was “inactive” each time. Besides, the result in assay [3], in [4], in assay [5], in assay [6], in [7] and in assay [8] was inactive. In addition, the pIC50 in [9] is 7.68.
On to `CN(C)c1ccc(N2C(=O)O/C(=C\c3ccc(O)c(Br)c3)C2=O)cc1`, for which the inhibition result in assay [1] and in assay [2] was “inactive” each time. The result in assay [3], in assay [4], in assay [5], in assay [6], in assay [7] and in assay [8] was inactive. In addition, in [9], the pIC50 is 7.60.
Turning to `COc1ccc(N2C(=O)/C(=C/c3cc(F)c(O)c(Cl)c3)OC2=S)cc1`, the inhibition entry in assay [1] and in assay [2] was “inactive” throughout. The result in [3], in assay [4], in [5], in [6], in [7] and in assay [8] was inactive. This compound gave a pIC50 in assay [9] of 9.00.
As to `O=C1O/C(=C\c2ccc(O)c(Br)c2)C(=O)N1c1ccc(Cl)nc1`, the inhibition result in assay [1] and in [2] was “inactive” each time. The outcome in assay [3], in assay [4], in assay [5], in assay [6], in assay [7] and in assay [8] was inactive. This compound had a pIC50 in assay [9] of 7.70.
For `COc1ccc(N2C(=O)/C(=C/c3ccc(O)c(Cl)c3)OC2=S)cc1`, the inhibition entry in [1] and in [2] was “inactive” throughout. Besides, the outcome in assay [3], in [4], in [5], in assay [6], in assay [7] and in assay [8] was inactive. Besides, the pIC50 in [9] was 8.40.
